Assay results from patent publication US11674952B2, “Embryonic cell-based therapeutic candidate screening systems, models for Huntington's Disease and uses thereof” (The Rockefeller University, priority 2016, dated 2023).
Entries after “also recorded” stand apart in the source; their conditions may differ.

System: RUES2-Q150 cells
Experiment: Germ layer micropattern screen: BMP4-differentiated hESC colonies, reversion of the HD-dependent micropattern signature
Type: cell-based, human
Details: kinetin 1 μM for 2-24 hours prior to BMP4 addition
Excerpt: Micropattern cultures were established according to methods described in Warmflash et al., Nature Methods. 2014 August: 11(8):847-854. This procedure is briefly described in Materials and Methods.
Cells confined to circular micropatterns and differentiated with BMP4 produce an ordered array of germ layers along the radial axis of the colony. This order results from self-organized signaling which confines response to the BMP4 to the colony border while inducing a broader gradient of Activin/Nodal signaling to pattern mesendodermal fates. Control of fates is established from the border of the colony so that as colony size is reduced the central fates are lost. Thus, given minimal geometric and signaling cues, hESCs will self-organize to generate embryonic patterns such as those of the human gastrula.
The Applicants next applied micropattern technology to the isogenic hESC lines for Huntington's Disease. […]
The spatial expression of germ markers Sox2, Bra, and Cdx2 was compared between RUES2 and RUES2-Q150 cells (FIG. 6). […] Tri dimensional geometry was evaluated by first generating images of cells at different focal planes known as “Z-stacks”. […]

c1coc(CNc2ncnc3[nH]cnc23)c1 [kinetin]
rescue of HD-dependent micropattern signature (SOX2+ area; Sox2 and Bra/Cdx2 territories): reduced or reverted HD-dependent micropattern signature; also recorded: restore the HD-dependent micropattern signature; also recorded: at least partially rescued; also recorded: partial but significant rescue of phenotype | rescue of cell number phenotype (total number of cells per micropattern, cell density): restored the cell density; also recorded: restored the cell number phenotype; also recorded: rescues the cell number phenotype
